From PubChem BioAssay AID1963968 (Molecular Pharmacology Branch, DTP, NCI, 2024)

Tested on: 945468-187-T-J3-PDC spheroids with HUVEC/MSC, viability
Assay: Anticancer human tumor 945468-187-T-J3-PDC patient-derived rectal carcinoma cell line growth inhibition [PI3K]
Details: for IC50: curve of first compound; for viability, T/C: stronger effect = lower value; active means viability on the fitted dose curve at most 10% of control; inactive means the rest
Description: Combinatorial screen of targeted agents with the PI3K inhibitors inavolisib, alpelisib, duvelisib, and copanlisib in multi-cell type tumor spheroids
A high-throughput screen of multi-cell type tumor spheroids was designed to identify active combinations of targeted small molecules and PI3K pathway inhibitors. Complex spheroids include a stromal component modeled by human endothelial cells (HUVEC) and fibroblasts modeled by human mesenchymal stem cells (MSCs). The concentration ranges selected for each drug and investigational agent were based upon clinically achievable concentrations if the clinical Cmax of the agent was known.
Compounds. The drugs and investigational agents: inavolisib (NSC800729), alpelisib (NSC765974), duvelisib (NSC772469), copanlisib (NSC816437), ipatasertib (NSC767898), afuresertib (NSC778305), talazoparib (NSC767125), sapanisertib (NSC764658), selumetinib (NSC741078), tovorafenib (DAY101, NSC766906), vemurafenib (NSC761431), ravoxertinib (NSC781343), sotorasib (NSC818433), MRTX1133 (NSC 836407), abemaciclib (NSC 768073), palbociclib (NSC758247), venetoclax (NSC 766270), SY5609 (NSC837396), enzalutamide (NSC755605), and darolutamide (NSC825331), were obtained from the National Cancer Institute (NCI) Developmental Therapeutics Program Chemical Repository. The FDA-approved anticancer drug set is available from the NCI Developmental Therapeutics Program. […] The stock solutions were prepared in dimethyl sulfoxide (DMSO, Sigma-Aldrich, St. Louis, MO, cat. D2650) at 800-fold the tested concentration and stored at -70 degrees C prior to their use. All drugs and investigational agents were tested over a range starting from a high concentration at or near the clinical Cmax and decreasing in half-log increments. If the clinical Cmax for an agent had not been determined, the highest concentration tested was 10 microM.
Cell Culture. All cells were maintained in an incubator at 37 degrees C and 5% CO2 with 95% humidity. The PDC lines were cultured according to standard operating procedures established by the NCI PDMR (https://pdmr.cancer.gov/sops/default.htm). All PDCs were thawed and cultured in Matrigel-coated flasks prepared with a working solution of 1X Ham's F-12 nutrient mix, without supplementation (Invitrogen, Waltham, MA, cat. 11765054), 100 U/mL penicillin-streptomycin (Invitrogen, cat. 15140122), and 2.5% Matrigel (Corning Inc., Corning, NY, cat. 354248) for the first three passages. The 354836-022-R-J1-PDC, 475296-252-R-J1-PDC, and 997726-040-R-J2-PDC lines were cultured in 6A media, which includes advanced DMEM/F-12 (Thermo Fisher Scientific, cat. 12634028), 10 mM HEPES (Thermo Fisher Scientific, cat. 15630080), 1X GlutaMAX supplement (Thermo Fisher Scientific, cat. 35050061), 0.1 mg/mL primocin (InvivoGen, San Diego, CA, cat. ant-pm-2), 10% defined fetal bovine serum, heat inactivated (HyClone Laboratories Inc., Logan, UT, cat. SH30070.03HI), 50% L-WRN conditioned media (ATCC, cat. CRL-3276), 1.25 mM N-Acetyl-L-cysteine (Sigma-Aldrich, cat. A9165), 10 mM nicotinamide (Sigma-Aldrich, cat. N0636), 1X B-27 supplement (Thermo Fisher Scientific, cat. 17504044), 1X N-2 supplement (Thermo Fisher Scientific, cat. 17502048), and 10 microM Y-27632 dihydrochloride (Tocris Bioscience, Bristol, United Kingdom, cat. 1254). The 624824-186-R-J2-PDC line was cultured in 6C/Colon 1B media, which includes all 6A media components plus 50 ng/mL human EGF recombinant protein (Thermo Fisher Scientific, cat. PHG0311). […]

[1] = second compound 0.00316 µM, first compound 0.0316 µM
[2] = second compound 0.00316 µM, first compound 0.1 µM
[3] = second compound 0.01 µM, first compound 0.0316 µM
[4] = second compound 0.01 µM, first compound 0.1 µM
[5] = second compound 0.0316 µM, first compound 0.0316 µM
[6] = second compound 0.0316 µM, first compound 0.1 µM
[7] = second compound 0.1 µM, first compound 0.0316 µM
[8] = second compound 0.1 µM, first compound 0.1 µM
[9] = second compound 0.316 µM, first compound 0.0316 µM
[10] = second compound 0.316 µM, first compound 0.1 µM
[11] = second compound 1 µM, first compound 0.0316 µM
[12] = second compound 1 µM, first compound 0.1 µM
[13] = second compound 0.00316 µM, first compound 0.316 µM
[14] = second compound 0.00316 µM, first compound 1 µM
[15] = second compound 0.00316 µM, first compound 3.16 µM
[16] = second compound 0.00316 µM, first compound 10 µM
[17] = second compound 0.01 µM, first compound 0.316 µM
[18] = second compound 0.01 µM, first compound 1 µM
[19] = second compound 0.01 µM, first compound 3.16 µM
[20] = second compound 0.01 µM, first compound 10 µM
[21] = second compound 0.0316 µM, first compound 0.316 µM
[22] = second compound 0.0316 µM, first compound 1 µM
[23] = second compound 0.0316 µM, first compound 3.16 µM
[24] = second compound 0.0316 µM, first compound 10 µM
[25] = second compound 0.1 µM, first compound 0.316 µM
[26] = second compound 0.1 µM, first compound 1 µM
[27] = second compound 0.1 µM, first compound 3.16 µM
[28] = second compound 0.1 µM, first compound 10 µM
[29] = second compound 0.316 µM, first compound 0.316 µM
[30] = second compound 0.316 µM, first compound 1 µM
[31] = second compound 0.316 µM, first compound 3.16 µM
[32] = second compound 0.316 µM, first compound 10 µM
[33] = second compound 1 µM, first compound 0.316 µM
[34] = second compound 1 µM, first compound 1 µM
[35] = second compound 1 µM, first compound 3.16 µM
[36] = second compound 1 µM, first compound 10 µM
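Further: spheroids exposed to agents for 7 days before viability read.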

CC(=O)c1c(C)c2cnc(Nc3ccc(N4CCNCC4)cn3)nc2n(C2CCCC2)c1=O + CC(Nc1ccc2c(c1)OCCn1cc(N3C(=O)OCC3C(F)F)nc1-2)C(N)=O
0.0775 µM: IC50 (second compound 1 µM)
inactive: viability, T/C (second compound 0.00316 µM, first compound 0.000316 µM) 90.5% | viability, T/C (second compound 0.00316 µM, first compound 0.001 µM) 100% | viability, T/C (second compound 0.00316 µM, first compound 0.00316 µM) 94.9% | viability, T/C (second compound 0.00316 µM, first compound 0.01 µM) 99.2% | viability, T/C [1] 108% | viability, T/C [2] 110% | viability, T/C (second compound 0.01 µM, first compound 0.000316 µM) 97.6% | viability, T/C (second compound 0.01 µM, first compound 0.001 µM) 104% | viability, T/C (second compound 0.01 µM, first compound 0.00316 µM) 101% | viability, T/C (second compound 0.01 µM, first compound 0.01 µM) 110% | viability, T/C [3] 109% | viability, T/C [4] 103% | viability, T/C (second compound 0.0316 µM, first compound 0.000316 µM) 108% | viability, T/C (second compound 0.0316 µM, first compound 0.001 µM) 104% | viability, T/C (second compound 0.0316 µM, first compound 0.00316 µM) 92.8% | viability, T/C (second compound 0.0316 µM, first compound 0.01 µM) 116% | viability, T/C [5] 101% | viability, T/C [6] 123% | viability, T/C (second compound 0.1 µM, first compound 0.000316 µM) 110% | viability, T/C (second compound 0.1 µM, first compound 0.001 µM) 111% | viability, T/C (second compound 0.1 µM, first compound 0.00316 µM) 104% | viability, T/C (second compound 0.1 µM, first compound 0.01 µM) 118% | viability, T/C [7] 115% | viability, T/C [8] 119% | viability, T/C (second compound 0.316 µM, first compound 0.000316 µM) 118% | viability, T/C (second compound 0.316 µM, first compound 0.001 µM) 100% | viability, T/C (second compound 0.316 µM, first compound 0.00316 µM) 90.1% | viability, T/C (second compound 0.316 µM, first compound 0.01 µM) 101% | viability, T/C [9] 104% | viability, T/C [10] 81.5% | viability, T/C (second compound 1 µM, first compound 0.000316 µM) 83.1% | viability, T/C (second compound 1 µM, first compound 0.001 µM) 67.9% | viability, T/C (second compound 1 µM, first compound 0.00316 µM) 64.7% | viability, T/C (second compound 1 µM, first compound 0.01 µM) 80.6% | viability, T/C [11] 74.8% | viability, T/C [12] 43.2%
> 0.1 µM: IC50 (second compound 0.00316 µM) | IC50 (second compound 0.01 µM) | IC50 (second compound 0.0316 µM) | IC50 (second compound 0.1 µM) | IC50 (second compound 0.316 µM)

CCCS(=O)(=O)Nc1ccc(F)c(C(=O)c2c[nH]c3ncc(-c4ccc(Cl)cc4)cc23)c1F + CC(Nc1ccc2c(c1)OCCn1cc(N3C(=O)OCC3C(F)F)nc1-2)C(N)=O
inactive: viability, T/C [1] 105% | viability, T/C [2] 96.9% | viability, T/C [13] 93% | viability, T/C [14] 104% | viability, T/C [15] 97.1% | viability, T/C [16] 17.3% | viability, T/C [3] 105% | viability, T/C [4] 88.7% | viability, T/C [17] 104% | viability, T/C [18] 102% | viability, T/C [19] 110% | viability, T/C [20] 17.3% | viability, T/C [5] 98.5% | viability, T/C [6] 108% | viability, T/C [21] 97.7% | viability, T/C [22] 94.3% | viability, T/C [23] 100% | viability, T/C [24] 22.2% | viability, T/C [7] 101% | viability, T/C [8] 102% | viability, T/C [25] 104% | viability, T/C [26] 99.7% | viability, T/C [27] 121% | viability, T/C [28] 27% | viability, T/C [9] 98.7% | viability, T/C [10] 108% | viability, T/C [29] 98.5% | viability, T/C [30] 114% | viability, T/C [31] 97.6% | viability, T/C [32] 18.9% | viability, T/C [11] 66% | viability, T/C [12] 66.6% | viability, T/C [33] 74.9% | viability, T/C [34] 69.4% | viability, T/C [35] 51.1% | viability, T/C [36] 13.9%
3.27 µM: IC50 (second compound 1 µM)
6.24 µM: IC50 (second compound 0.00316 µM)
6.4 µM: IC50 (second compound 0.01 µM)
7.15 µM: IC50 (second compound 0.1 µM)
6.37 µM: IC50 (second compound 0.316 µM)
6.62 µM: IC50 (second compound 0.0316 µM)

CNC(=O)c1ccc(N2C(=S)N(c3ccc(C#N)c(C(F)(F)F)c3)C(=O)C2(C)C)cc1F + CC(Nc1ccc2c(c1)OCCn1cc(N3C(=O)OCC3C(F)F)nc1-2)C(N)=O
> 10 µM: IC50 (second compound 0.00316 µM) | IC50 (second compound 0.01 µM) | IC50 (second compound 0.0316 µM) | IC50 (second compound 0.1 µM) | IC50 (second compound 0.316 µM) | IC50 (second compound 1 µM)
inactive: viability, T/C [1] 92.4% | viability, T/C [2] 108% | viability, T/C [13] 109% | viability, T/C [14] 108% | viability, T/C [15] 132% | viability, T/C [16] 103% | viability, T/C [3] 105% | viability, T/C [4] 124% | viability, T/C [17] 115% | viability, T/C [18] 129% | viability, T/C [19] 111% | viability, T/C [20] 108% | viability, T/C [5] 110% | viability, T/C [6] 118% | viability, T/C [21] 111% | viability, T/C [22] 126% | viability, T/C [23] 109% | viability, T/C [24] 111% | viability, T/C [7] 121% | viability, T/C [8] 108% | viability, T/C [25] 125% | viability, T/C [26] 128% | viability, T/C [27] 126% | viability, T/C [28] 109% | viability, T/C [9] 124% | viability, T/C [10] 104% | viability, T/C [29] 108% | viability, T/C [30] 115% | viability, T/C [31] 121% | viability, T/C [32] 108% | viability, T/C [11] 79.8% | viability, T/C [12] 63.1% | viability, T/C [33] 72.7% | viability, T/C [34] 81.1% | viability, T/C [35] 94.5% | viability, T/C [36] 94.3%
